The conditions of series [1]: volume of water for 1 g; cited from earlier work.
The nature of series [2]: Franz skin diffusion cell permeation (percutaneous absorption) under ambient, natural or pulsed incoherent LED light. To be noted: for Permeation Dark: ambient light absent; for Ctrl: ambient light only; for Ctrl-TiO2: 2% TiO2; for Ctrl-TiO2/1.7: 2% TiO2, 1.7 cps; for Ctrl-TiO2/9.7: 2% TiO2, 9.7 cps; for Ctrl-TiO2/24: 2% TiO2, 24 cps; for Permeation Ctrl: ambient cool fluorescent light only, 260-750 nm, 120 cps; for Permeation Ctrl-TiO2: ambient fluorescent light, sample with 2% (w/w) rutile TiO2.

Where [3] appears, read: Table 8 (405 nm series), ambient light.
[4] abbreviates: Table 7 (350 nm series), ambient light.

As for `Cn1cnc2c1c(=O)[nH]c(=O)n2C` [Compound 7, Theobromine], the “Water Solubility (1 g)” value in series [1] is 2000 mL.

In the case of `Cc1ncc(CO)c(CO)c1O` [Compound 5, Pyridoxine], the “Water Solubility (1 g)” value in series [1] was 4.5 mL. In addition, the “Permeation Dark” value in series [2] (Dark control) is 261.30 μg/0.64 cm^2/25 hrs. The same compound gave a Ctrl in series [2] (Table 8 (405 nm series)) of 32.90. For the same compound, in series [2] (setting [3]), the Ctrl-TiO2 was determined as 806.25. In addition, in series [2] (Table 8, 405 nm series), the Ctrl-TiO2/1.7 is 537.60, the Ctrl-TiO2/9.7 amounted to 862.75 and the Ctrl-TiO2/24 came to 0.00. In series [2] (Table 8, 405 nm, 1.7 cps), this compound had a 405/1.7 of 179.38. Further, in series [2] (Table 8, 405 nm, 9.7 cps), the 405/9.7 was determined as 0.00. Moreover, the 405/24 in series [2] (Table 8, 405 nm, 24 cps) was 187.81. In series [2], the “Permeation Ctrl” value was 32.90 μg/0.64 cm^2/25 hrs and the “Permeation Ctrl-TiO2” value is 806.20 μg/0.64 cm^2/25 hrs. Further, the “Effect of 2% (w/w) TiO2 on permeation” value in series [2] (ambient light, FIG. 4) is on record as “significant effect”.

`Cn1c(=O)c2[nH]cnc2n(C)c1=O` [Compound 8, Theophylline]: the “Water Solubility (1 g)” value in series [1] is 120 mL.

`C[C@@H]1[C@H](O)[C@@H](C)/C=C/C=C/C=C/C=C/C=C/C=C/C=C/[C@H](O[C@@H]2O[C@H](C)[C@@H](O)[C@H](N)[C@@H]2O)C[C@@H]2O[C@](O)(C[C@@H](O)C[C@@H](O)[C@H](O)CC[C@@H](O)C[C@@H](O)CC(=O)O[C@H]1C)C[C@H](O)[C@H]2C(=O)O` [Compound 21, Amphotericin B]: the “% Permeation (percent increase or decrease vs dark baseline, equation 1)” value in series [2] (350 + TiO2, 8 cps vs Dark-TiO2) is recorded as 49.51%; in series [2] (350 + TiO2, 24 cps vs Dark-TiO2) it was 71.32%; in series [2] (350 + TiO2, 80 cps vs Dark-TiO2), 18.24%; in series [2] (350 nm, 8 cps vs Dark) it was 60.81%; in series [2] (350 nm, 24 cps vs Dark), 66.67%; in series [2] (350 nm, 80 cps vs Dark), −11.36%. Moreover, the “% Permeation (percent increase or decrease vs dark baseline, equation 1)” value is reported as 91.26% in series [2] (390 + TiO2, 8 cps vs Dark-TiO2); 48.53% in series [2] (390 + TiO2, 24 cps vs Dark-TiO2); 241.18% in series [2] (390 + TiO2, 80 cps vs Dark-TiO2); 50.00% in series [2] (390 nm, 8 cps vs Dark); −6.47% in series [2] (390 nm, 24 cps vs Dark); 24.29% in series [2] (390 nm, 80 cps vs Dark). Moreover, the “% Permeation (percent increase or decrease vs dark baseline, equation 1)” value was 33.01% in series [2] (405 + TiO2, 8 cps vs Dark-TiO2); 817.65% in series [2] (405 + TiO2, 24 cps vs Dark-TiO2); 180.59% in series [2] (405 + TiO2, 80 cps vs Dark-TiO2); 70.27% in series [2] (405 nm, 8 cps vs Dark); −8.96% in series [2] (405 nm, 24 cps vs Dark); 129.65% in series [2] (405 nm, 80 cps vs Dark). Also, the “% Permeation (percent increase or decrease vs dark baseline, equation 1)” value in series [2] (450 + TiO2, 8 cps vs Dark-TiO2) is given as 110.68%; in series [2] (450 + TiO2, 24 cps vs Dark-TiO2) it was 8.82%; in series [2] (450 + TiO2, 80 cps vs Dark-TiO2), 198.82%; in series [2] (450 nm, 8 cps vs Dark) it was 8.11%; in series [2] (450 nm, 24 cps vs Dark), −40.80%; in series [2] (450 nm, 80 cps vs Dark) it was 192.11%. Also, the “% Permeation (percent increase or decrease vs dark baseline, equation 1)” value is 13.51% in series [2] (Day vs Dark, 8 cps series); −20.90% in series [2] (Day vs Dark, 24 cps series); −20.50% in series [2] (Day vs Dark, 80 cps series); −32.04% in series [2] (Day-TiO2 vs Dark-TiO2, 8 cps series); −34.56% in series [2] (Day-TiO2 vs Dark-TiO2, 24 cps series); 140.59% in series [2] (Day-TiO2 vs Dark-TiO2, 80 cps series). Moreover, the Permeation is listed as 1.54 μg/cm^2/24 hrs in series [2] (350 + TiO2, pulse rate 8 cps); 2.33 μg/cm^2/24 hrs in series [2] (350 + TiO2, pulse rate 24 cps); 2.01 μg/cm^2/24 hrs in series [2] (350 + TiO2, pulse rate 80 cps); 1.19 μg/cm^2/24 hrs in series [2] (350 nm LED, pulse rate 8 cps); 3.35 μg/cm^2/24 hrs in series [2] (350 nm LED, pulse rate 24 cps); 2.81 μg/cm^2/24 hrs in series [2] (350 nm LED, pulse rate 80 cps). The Permeation in series [2] (390 + TiO2, pulse rate 8 cps) was 1.97 μg/cm^2/24 hrs; in series [2] (390 + TiO2, pulse rate 24 cps) it was 2.02 μg/cm^2/24 hrs; in series [2] (390 + TiO2, pulse rate 80 cps), 5.80 μg/cm^2/24 hrs; in series [2] (390 nm LED, pulse rate 8 cps) it was 1.11 μg/cm^2/24 hrs; in series [2] (390 nm LED, pulse rate 24 cps), 1.88 μg/cm^2/24 hrs; in series [2] (390 nm LED, pulse rate 80 cps), 3.94 μg/cm^2/24 hrs. The Permeation was determined as 1.37 μg/cm^2/24 hrs in series [2] (405 + TiO2, pulse rate 8 cps); 12.48 μg/cm^2/24 hrs in series [2] (405 + TiO2, pulse rate 24 cps); 4.77 μg/cm^2/24 hrs in series [2] (405 + TiO2, pulse rate 80 cps); 1.26 μg/cm^2/24 hrs in series [2] (405 nm LED, pulse rate 8 cps); 1.83 μg/cm^2/24 hrs in series [2] (405 nm LED, pulse rate 24 cps); 7.23 μg/cm^2/24 hrs in series [2] (405 nm LED, pulse rate 80 cps). The Permeation was 2.17 μg/cm^2/24 hrs in series [2] (450 + TiO2, pulse rate 8 cps); 1.48 μg/cm^2/24 hrs in series [2] (450 + TiO2, pulse rate 24 cps); 5.08 μg/cm^2/24 hrs in series [2] (450 + TiO2, pulse rate 80 cps); 0.80 μg/cm^2/24 hrs in series [2] (450 nm LED, pulse rate 8 cps); 1.19 μg/cm^2/24 hrs in series [2] (450 nm LED, pulse rate 24 cps); 9.26 μg/cm^2/24 hrs in series [2] (450 nm LED, pulse rate 80 cps). In addition, the Permeation in series [2] (Dark control, 8 cps series) was determined as 0.74 μg/cm^2/24 hrs; in series [2] (Dark control, 24 cps series), 2.01 μg/cm^2/24 hrs; in series [2] (Dark control, 80 cps series) it was 3.17 μg/cm^2/24 hrs; in series [2] (Dark-TiO2 control (2% TiO2), 8 cps series), 1.03 μg/cm^2/24 hrs; in series [2] (Dark-TiO2 control (2% TiO2), 24 cps series) it was 1.36 μg/cm^2/24 hrs; in series [2] (Dark-TiO2 control (2% TiO2), 80 cps series), 1.70 μg/cm^2/24 hrs. The Permeation in series [2] (Day (natural daylight, not pulsed), control of the 8 cps series) was determined as 0.84 μg/cm^2/24 hrs; in series [2] (Day (natural daylight, not pulsed), control of the 24 cps series), 1.59 μg/cm^2/24 hrs; in series [2] (Day (natural daylight, not pulsed), control of the 80 cps series), 2.52 μg/cm^2/24 hrs; in series [2] (Day-TiO2 (natural daylight, 2% TiO2, not pulsed), control of the 8 cps series), 0.70 μg/cm^2/24 hrs; in series [2] (Day-TiO2 (natural daylight, 2% TiO2, not pulsed), control of the 24 cps series), 0.89 μg/cm^2/24 hrs; in series [2] (Day-TiO2 (natural daylight, 2% TiO2, not pulsed), control of the 80 cps series), 4.09 μg/cm^2/24 hrs.

As for `CCCCCCCCCCCCCCCC(=O)OC[C@H](O)[C@H]1OC(=O)C(O)=C1O` [Compound 4, Ascorbyl palmitate], the “Permeation Dark” value in series [2] (Dark control) is listed as 0.00 μg/0.64 cm^2/25 hrs. Besides, in series [2] (Table 7 (350 nm series)), the Ctrl was 263.48. In addition, the Ctrl-TiO2 in series [2] (setting [4]) came out at 260.00. Also, in series [2] (Table 7, 350 nm series), the Ctrl-TiO2/1.7 amounted to 289.57, the Ctrl-TiO2/9.7 is on record as 312.06 and the Ctrl-TiO2/24 is 180.88. The compound further showed a 350/1.7 in series [2] (Table 7, 350 nm, 1.7 cps) of 160.87. In series [2] (Table 7, 350 nm, 9.7 cps), the 350/9.7 was determined as 0.00. The same compound displayed a 350/24 in series [2] (Table 7, 350 nm, 24 cps) of 151.00.

With `CC[C@H](C)[C@H](NC(=O)[C@H](Cc1ccc(O)cc1)NC(=O)[C@@H](NC(=O)[C@H](CCCNC(=N)N)NC(=O)[C@@H](N)CC(=O)O)C(C)C)C(=O)N[C@@H](Cc1cnc[nH]1)C(=O)N1CCC[C@H]1C(=O)N[C@@H](Cc1ccccc1)C(=O)O` [Compound 15], the “Permeation Dark” value in series [2] (Dark control) was 42.80 μg/0.64 cm^2/25 hrs. The 405/1.7 in series [2] (Table 10, 405 nm, 1.7 cps) is given as 19.99. Moreover, the 405/9.7 in series [2] (Table 10, 405 nm, 9.7 cps) was 73.19. Also, the 405/24 in series [2] (Table 10, 405 nm, 24 cps) amounted to 3.87. In series [2] (Table 10 peptides), the Ctrl is given as 0.00. Besides, in series [2], the “Permeation Ctrl” value was 0.00 μg/0.64 cm^2/25 hrs and the “Permeation Ctrl-TiO2” value is 0.00 μg/0.64 cm^2/25 hrs.

For `O=C1O[C@H]([C@@H](O)CO)C(O)=C1O` [Compound 3, Ascorbic Acid], the Ctrl in series [2] (Table 7 (350 nm series)) is reported as 147.49; in series [2] (Table 8 (405 nm series)) it was 557.96. For the same compound, the results for the Ctrl-TiO2 in series [2] (setting [4]) and in series [2] (setting [3]) were 67.01 and 127.25, respectively.

Take `Cn1c(=O)c2c(ncn2CC(=O)O)n(C)c1=O` [Compound 1, Theophylline-7 acetic acid]: the “Permeation Dark” value in series [2] (Dark control) was 0.00 μg/0.64 cm^2/25 hrs. Also, in series [2], the “Permeation Ctrl” value is recorded as 0.00 μg/0.64 cm^2/25 hrs and the “Permeation Ctrl-TiO2” value is listed as 0.00 μg/0.64 cm^2/25 hrs.
